Experiment: in vitro
Settings: rat, rat liver microsomes, pH 7.4
Procedure: Several compounds were evaluated for stability in rat liver microsomes.
The test compounds (1 p) were incubated at 37° C. in phosphate buffer (50 mM, pH 7.4) containing rat liver microsomes (1 mg/mL protein) and NADPH (Nicotinamide Adenine Dinucleotide Phosphate, reduced form) (4 mM). The incubation mixtures were quenched with trichloroacetic acid (0.3 M) over 0, 5, 15, 30 min time-course. Quenched solutions were centrifuged and supernatants were transferred for LC/MS quantitation. The half life of a test compounds was derived from the compound stability curve over the time course.

half-life at 1 p | Structure (SMILES)
2.5 min | N#Cc1ccccc1Cn1c(N2CCCC(N)C2)nc2ccccc2c1=O (stereo not drawn) [Example 1, 2-[2-(3-Amino-piperidin-1-yl)-4-oxo4H-quinazolin-3-ylmethyl]-benzonitrile]
107 min | COc1cc2nc(N3CCCC(N)C3)n(Cc3ccccc3C#N)c(=O)c2cc1OC (stereo not drawn) [Example 2, 2-[2-(3-Amino-piperidin-1-yl)-6,7-dimethoxy-4-oxo-4H-quinazolin-3-ylmethyl]-benzonitrile]
31 min | N#Cc1ccccc1Cn1c(N2CCCC(N)C2)nc2ccc(F)cc2c1=O (stereo not drawn) [Example 6, 2-[2-(3-Amino-piperidin-1-yl)-6-fluoro4-oxo4H-quinazolin-3-ylmethyl]-benzonitrile]
